Test results reported in patent EP0569096A1, “Depot preparation” (Akzo Nobel N.V., priority 1992, dated 1993).
Counter-ions that a name gives are not always drawn.

Key:
physchem = details: water
[1] = water solubility of the salts; details: general statement in the disclosure of the invention
[2] = solubility of the crystalline form compared with the amorphous solid; assay type: physicochemical; details: crystals formed after storage for two weeks at 50° C
Description: (§1) The pamoate salt of EXAMPLE I was stored for two weeks at 50° C, and crystals spontaneously formed. […] Furthermore they were easier to segregate for micronization, and easier to form a suspension with.

[3] = stability of the crystalline form compared with the amorphous solid; assay type: physicochemical; details: crystals formed after storage for two weeks at 50° C
Description: as §1

CN1C[C@H]2c3ccccc3Oc3ccc(Cl)cc3[C@@H]2C1 (relative stereo) [fumarate]
solubility (physchem): 1000 µg/mL

CN1C[C@H]2c3ccccc3Oc3ccc(Cl)cc3[C@@H]2C1 (relative stereo) [pamoate salt]
solubility (in words) [1]: very insoluble

CN1C[C@@H]2c3ccccc3Oc3ccc(Cl)cc3[C@H]2C1.O=C(O)c1cc2ccccc2c(Cc2c(O)c(C(=O)O)cc3ccccc23)c1O [crystals]
solubility relative to the amorphous yellow solid [2]: less soluble
stability relative to the amorphous yellow solid [3]: more stable

CN1CC2c3ccccc3Oc3ccc(Cl)cc3C2C1.CN1CC2c3ccccc3Oc3ccc(Cl)cc3C2C1.O=C(O)c1cc2ccccc2c(Cc2c(O)c(C(=O)O)cc3ccccc23)c1O [hemipamoate]
solubility (in words) [1]: very insoluble
